From US6447749B1, “Perfluoro-alkyl containing dye molecules and galencial formulations” (Schering Aktiengesellschaft, priority 1999, dated 2002)
Counter-ions that a name gives are not always drawn.

Tests used:
[1] = Photophysical characterization: fluorescence properties and fluorescence quantum yield (SPEX-fluorolog, relative to indocyanine green); assay type: physicochemical; conditions: formulation with Gd-complex perfluoroalkyl derivative (WO 97/26017 Ex. 33); for Fluorescence quantum yield: 2 μM in dye
Procedure: (§1) The determination of the absorption maxima and extinction coefficients was carried out with a Lambda 2-spectrometer (Perkin-Elmer Company). The fluorescence properties were determined on a SPEX-fluorolog (Instruments S. A. Company, photomultiplier Hamamatsu PM928, excitation 350W xenon lamp). the determination of the fluorescence quantum yield was carried out relative to indocyanine green (O=13% in DMSO) by excitation at 585 nm (dyes with p=2) or 685 nm (dyes with p=3), in each case of solutions of concentration 2 μM in dye, and correction with the spectral sensitivity of lamp and detector.

[2] = Photophysical characterization: absorption maxima and extinction coefficients (Lambda 2-spectrometer); assay type: physicochemical; conditions: formulation with Gd-complex perfluoroalkyl derivative (WO 97/26017 Ex. 33)
Procedure: as §1

[3] = in DMSO; cited from earlier work
[4] = dyes 7-14 table, 5 mol % of dye

SMILES | Fluorescence max. [1, 4] [nm] | Fluorescence quantum yield [1, 4] | Absorption max. [2, 4] [nm] | Extinction coefficient [2, 4] | also measured
CCN1C(=CC=CC=CC=CC2=[N+](CCCCS(=O)(=O)[O-])c3ccc(C(=O)N(CCOCCC(F)(F)C(F)(F)C(F)(F)C(F)(F)C(F)(F)C(F)(F)C(F)(F)C(F)(F)F)CC(O)CO)cc3C2(C)C)C(C)(C)c2ccccc21 (stereo not shown) [Dye 14, 2-[5-(1-ethyl)-1,3-dihydro-3,3-dimethyl-2H-indol-2-ylidene)-1,3,5-heptatrienyl]-5-{N-[2-(3,3,4,4,5,5,6,6,7,7,8,8,9,9,10,10,10-heptadecafluorodecyloxy)-ethyl]-N-(2,3-dihydroxypropyl)aminocarbonyl}-3,3-dimethyl-1-(4-sulfobutyl)-3H-indolium, internal salt, sodium salt] | 789 | 0.09 | 753 | 124,100 L mol^−1 cm^−1 | 
CCN1C(=CC=CC=CC2=[N+](CCCCS(=O)(=O)[O-])c3ccc(C(=O)N(CCOCCC(F)(F)C(F)(F)C(F)(F)C(F)(F)C(F)(F)C(F)(F)C(F)(F)C(F)(F)F)CC(O)CO)cc3C2(C)C)C(C)(C)c2ccccc21 (stereo not shown) [Dye 13, 2-[5-(1-ethyl)-1,3-dihydro-3,3-dimethyl-2H-indol-2-ylidene)-1,3-pentatrienyl]-5-{N-[2-(3,3,4,4,5,5,6,6,7,7,8,8,9,9,10,10,10-heptadecafluorodecyloxy)ethyl]-N-(2,3-dihydroxypropyl)aminocarbonyl}-3,3-dimethyl-1-(4-sulfobutyl)-3H-indolium, internal salt, sodium salt] | 684 | 0.16 | 650 | 150,700 L mol^−1 cm^−1 | 
CC1(C)C(=CC=CC=CC2=[N+](CCCCS(=O)(=O)[O-])c3ccc(C(=O)N(CCOCCC(F)(F)C(F)(F)C(F)(F)C(F)(F)C(F)(F)C(F)(F)C(F)(F)C(F)(F)F)CC(O)CO)cc3C2(C)C)N(CCCCS(=O)(=O)[O-])c2ccccc21.[Na+] (stereo not shown) [Dye 9, 5-{N-[2-(3,3,4,4,5,5,6,6,7,7,8,8,9,9,10,10,10-heptadecafluorodecyloxy)ethyl]-N-(2,3-dihydroxypropyl)aminocarbonyl}-2-{7-[1,3-dihydro-3,3-dimethyl-1-(4-sulfobutyl)-2H-indol-2-ylidene]-1,3-pentadienyl}-3,3-dimethyl-1-(4-sulfobutyl)-3H-indolium, internal salt, sodium salt] | 685 | 0.12 | 651 | 123,700 L mol^−1 cm^−1 | Fluorescence max. ([1]; 1 mol % of dye): 681 nm; Fluorescence quantum yield ([1]; 1 mol % of dye): 0.17; Fluorescence max. ([1]; 2 mol % of dye): 683 nm; Fluorescence quantum yield ([1]; 2 mol % of dye): 0.18; Fluorescence max. ([1]; 5 mol % of dye): 685 nm; Fluorescence quantum yield ([1]; 5 mol % of dye): 0.12; Fluorescence max. ([1]; 10 mol % of dye): 685 nm; Fluorescence quantum yield ([1]; 10 mol % of dye): 0.04; Absorption max. ([2]; 1 mol % of dye): 652 nm; Extinction coefficient ([2]; 1 mol % of dye): 132,000 L mol^−1 cm^−1; Absorption max. ([2]; 2 mol % of dye): 651 nm; Extinction coefficient ([2]; 2 mol % of dye): 130,200 L mol^−1 cm^−1; Absorption max. ([2]; 5 mol % of dye): 651 nm; Extinction coefficient ([2]; 5 mol % of dye): 123,700 L mol^−1 cm^−1; Absorption max. ([2]; 10 mol % of dye): 649 nm; Extinction coefficient ([2]; 10 mol % of dye): 110,900 L mol^−1 cm^−1
CC1(C)C(/C=C/C=C/C=C/C=C2\N(CCCCS(=O)(=O)O)c3ccc4ccccc4c3C2(C)C)=[N+](CCCCS(=O)(=O)[O-])c2ccc3ccccc3c21 [indocyanine green] |  |  |  |  | fluorescence quantum yield (reference standard) [3]: 13%

Further lines, with some results ahead:

Fluorescence max. [1, 4] [nm] | Fluorescence quantum yield [1, 4] | Absorption max. [2, 4] [nm] | Extinction coefficient [2, 4] | SMILES | also measured
788 | 0.13 | 754 | 118,800 L mol^−1 cm^−1 | CCN1C(=CC=CC=CC=CC2=[N+](CCCCS(=O)(=O)[O-])c3ccc(C(=O)NCCOCCC(F)(F)C(F)(F)C(F)(F)C(F)(F)C(F)(F)C(F)(F)C(F)(F)C(F)(F)F)cc3C2(C)C)C(C)(C)c2ccccc21 [Dye 12, 2-[5-(1-ethyl)-1,3-dihydro-3,3-dimethyl-2H-indol-2-ylidene)-1,3,5-heptatrienyl]-5-{N-[2-(3,3,4,4,5,5,6,6,7,7,8,8,9,9,10,10,10-heptadecafluorodecyloxy)-ethyl]-aminocarbonyl}-3,3-dimethyl-1-(4-sulfobutyl)-3H-indolium, internal salt, sodium salt] | 
683 | 0.14 | 653 | 145,000 L mol^−1 cm^−1 | CCN1C(=CC=CC=CC2=[N+](CCCCS(=O)(=O)[O-])c3ccc(C(=O)NCCOCCC(F)(F)C(F)(F)C(F)(F)C(F)(F)C(F)(F)C(F)(F)C(F)(F)C(F)(F)F)cc3C2(C)C)C(C)(C)c2ccccc21 [Dye 11, 2-[5-(1-Ethyl)-1,3-dihydro-3,3-dimethyl-2H-indol-2-ylidene)-1,3-pentatrienyl]-5-{N-[2-(3,3,4,4,5,5,6,6,7,7,8,8,9,9,10,10,10-heptadecafluorodecyloxy)ethyl]-aminocarbonyl}-3,3-dimethyl-1-(4-sulfobutyl)-3H-indolium, internal salt, sodium salt] | 
